A short description of the series: Chemical stability in aqueous buffer at PH 7.3 by spontaneous hydrolysis. Type of series: physicochemical.

As usually defined, the half-life is how long it takes for the measured level to halve. Low values mean rapid decline, high ones slow decline. The molecule `O=C(c1cc(F)ccc1Cl)n1cccn1` had a half-life of 2.5 h.
The figure for `O=C(c1ccccc1Cl)n1cc(Cl)cn1` is 3 h; for `Cc1ccccc1C(=O)n1cccn1` it is 1.2 h.
Next, `O=C(c1cc(F)c(F)cc1Cl)n1cc(Br)cn1`: 0.73 h.
Molecule `CC(C)(C)c1ccc(C(=O)n2cc(Cl)cn2)cc1` had a half-life of 2.2 h. This half-life is about 3-fold higher than that of the molecule before.
Next, `Cc1nn(C(=O)c2ccccc2F)c(C)c1Cl`: 5.3 h; `O=C(c1ccc(F)cc1)n1cc(Cl)cn1`: 1.6 h.
The figure for `Cc1nn(C(=O)c2ccc(Cl)cc2)c(C)c1Cl` is 2.6 h; for `Cc1nn(C(=O)c2ccccc2Br)c(C)c1Cl` it is 12.5 h; for `Cc1cc(C)n(C(=O)c2ccc(C)c(Br)c2)n1` it is 25.1 h.
The figure for `Cc1nn(C(=O)c2ccc(Cl)cc2Cl)c(C)c1Cl` is 7.2 h.
`Cc1nn(C(=O)c2ccc(Cl)c([N+](=O)[O-])c2)c(C)c1Cl` gave a half-life of 2.2 h.
`Cc1ccccc1C(=O)n1cc([N+](=O)[O-])cn1` showed a half-life of 0.55 h.
The figure for `Cc1nn(C(=O)c2cccc(Br)c2)c(C)c1Br` is 3.1 h.
In turn, `Cc1cc(C)n(C(=O)c2ccc(Cl)c(Cl)c2)n1` showed a half-life of 10 h.
Turning to `O=C(c1cccc([N+](=O)[O-])c1)n1cc(Cl)cn1`, the half-life was 0.22 h.
The figure for `O=C(c1ccccc1)n1cc([N+](=O)[O-])cn1` is 0.04 h.
The figure for `Cc1ccc(C(=O)n2cc(Br)cn2)cc1` is 2.1 h; for `O=C(c1ccc(Cl)c(Cl)c1)n1cccn1` it is 1.1 h.
Take `Cc1ccc(C(=O)n2ccc([N+](=O)[O-])n2)cc1`: the half-life was 0.1 h.
Next, `O=C(c1ccccc1)n1ccc([N+](=O)[O-])n1`: 0.033 h.
With `Cc1ccccc1C(=O)n1cc(Br)cn1`, the half-life was 6.2 h.
The figure for `CC(=O)Nc1ccc(C(=O)n2ccc(C)n2)cc1` is 10 h.
Take `COC(=O)c1ccnn1C(=O)c1ccc(Cl)cc1`: the half-life was 0.29 h.
The molecule `Cc1ccc(C(=O)c2ccn(C(=O)c3ccc(F)cc3)n2)c(C)c1` showed a half-life of 0.21 h. The half-life values of the last two molecules are within 1.5-fold of each other.
Next, `O=C(Nc1ccccc1)c1ccn(C(=O)c2ccccc2)n1`: 0.51 h; `O=C(c1ccccc1Cl)n1cccn1`: 1.1 h.
Next, `Cc1nn(C(=O)c2ccc(Cl)cc2)c(C)c1Br`: 2.1 h.
The figure for `Cc1ccccc1C(=O)n1cc(Cl)cn1` is 4.2 h; for `Cc1cccc(C(=O)n2cc(Br)cn2)c1` it is 5.1 h.
In turn, `Cc1cc([N+](=O)[O-])nn1C(=O)c1ccccc1F` showed a half-life of 0.16 h.
Next, `O=C(c1c(F)cccc1F)n1cc(Br)cn1`: 3.1 h; `Cc1cc(C)n(C(=O)c2ccc(Cl)c([N+](=O)[O-])c2)n1`: 5.6 h.
Consider `COc1cc(C(=O)n2ccc(C)n2)cc(OC)c1OC`, for which the half-life is 4.2 h.

Source of the values: ChEMBL document CHEMBL1148811, “N-benzoylpyrazoles are novel small-molecule inhibitors of human neutrophil elastase” (J Med Chem, 2007).
